From patent publication US20260262643A1, “HERBICIDAL BENZOXAZINES” (FMC CORPORATION, priority 2022, published 2026)

Assays:
[1] = tested on: barnyardgrass; assay: Test D flooded paddy test; type: in vivo, Echinochloa crus-galli; conditions: 250 g ai/ha, applied to paddy water, visual rating after 13 to 14 days, scale 0 to 100 (0 no effect, 100 complete control)
Protocol: (§1) Plant species in the flooded paddy test selected from barnyardgrass (Echinochloa crus-galli), ducksalad (Heteranthera limosa), rice (Oryza sativa), and sedge, umbrella (small-flower umbrella sedge, Cyperus difformis) were grown to the 2-leaf stage for testing. At time of treatment, test pots were flooded to 3 cm above the soil surface, treated by application of test compounds directly to the paddy water, and then maintained at that water depth for the duration of the test. Treated plants and controls were maintained in a greenhouse for 13 to 14 days, after which time all species were compared to controls and visually evaluated. Plant response ratings, summarized in Table D, are based on a scale of 0 to 100 where 0 is no effect and 100 is complete control. A dash (-) response means no test result.

[2] = tested on: ryegrass, Italian; assay: Test C postemergence; type: in vivo, Lolium multiflorum; conditions: 10 days
Summary of the method: (§2)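 Seeds in loam–sand blend received preemergence directed soil spray of test chemicals in non-phytotoxic solvent with surfactant; postemergence treatment was applied at one- to two-leaf stage (2–10 cm). After 10 days in greenhouse, injury rated visually versus untreated controls, 0 (no effect) to 100 (complete control).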

[3] = tested on: blackgrass; assay: Test C preemergence; type: in vivo, Alopecurus myosuroides; conditions: 0 to 100 scale (0 no effect, 100 complete control); for Blackgrass plant response rating: Test C, preemergence, 125 g ai/ha; for Plant response rating, Blackgrass: Preemergence, 500 g ai/ha, visual rating after 10 days
Summary of the method: as §2

[4] = tested on: corn; assay: Test C preemergence; type: in vivo, Zea mays; conditions: 0 to 100 scale (0 no effect, 100 complete control); for Corn plant response rating: Test C, preemergence, 125 g ai/ha; for Plant response rating, Corn: Preemergence, 500 g ai/ha, visual rating after 10 days
Summary of the method: as §2

[5] = tested on: barnyardgrass; assay: Test C postemergence; type: in vivo, Echinochloa crusgalli; conditions: 10 days
Summary of the method: as §2

[6] = tested on: wheat; assay: Test C postemergence; type: in vivo, Triticum aestivum; conditions: 10 days
Summary of the method: as §2

[7] = tested on: horseweed; assay: Test C postemergence; type: in vivo, Erigeron canadensis; conditions: 10 days
Summary of the method: as §2

[8] = tested on: pigweed, palmer; assay: Test C preemergence; type: in vivo, Amaranthus palmeri; conditions: 0 to 100 scale (0 no effect, 100 complete control); for Pigweed, Palmer plant response rating: Test C, preemergence, 125 g ai/ha; for Plant response rating, Pigweed, Palmer: Preemergence, 500 g ai/ha, visual rating after 10 days
Summary of the method: as §2

[9] = tested on: corn; assay: Test C postemergence; type: in vivo, Zea mays; conditions: 10 days
Summary of the method: as §2

[10] = tested on: ducksalad; assay: Test D flooded paddy test; type: in vivo, Heteranthera limosa; conditions: 250 g ai/ha, applied to paddy water, visual rating after 13 to 14 days, scale 0 to 100 (0 no effect, 100 complete control)
Protocol: as §1

[11] = tested on: soybean; assay: Test C postemergence; type: in vivo, Glycine max; conditions: 10 days
Summary of the method: as §2

[12] = tested on: ryegrass, Italian; assay: Test C preemergence; type: in vivo, Lolium multiflorum; conditions: 0 to 100 scale (0 no effect, 100 complete control); for Ryegrass, Italian plant response rating: Test C, preemergence, 125 g ai/ha; for Plant response rating, Ryegrass, Italian: Preemergence, 500 g ai/ha, visual rating after 10 days
Summary of the method: as §2

[13] = tested on: ragweed; assay: Test C postemergence; type: in vivo, Ambrosia artemisiifolia; conditions: 10 days
Summary of the method: as §2

[14] = tested on: ragweed; assay: Test C preemergence; type: in vivo, Ambrosia artemisiifolia; conditions: 0 to 100 scale (0 no effect, 100 complete control); for Ragweed plant response rating: Test C, preemergence, 125 g ai/ha; for Plant response rating, Ragweed: Preemergence, 500 g ai/ha, visual rating after 10 days
Summary of the method: as §2

[15] = tested on: sedge, umbrella; assay: Test D flooded paddy test; type: in vivo, Cyperus difformis; conditions: 250 g ai/ha, applied to paddy water, visual rating after 13 to 14 days, scale 0 to 100 (0 no effect, 100 complete control)
Protocol: as §1

[16] = tested on: blackgrass; assay: Test C postemergence; type: in vivo, Alopecurus myosuroides; conditions: 10 days
Summary of the method: as §2

[17] = tested on: pigweed, palmer; assay: Test C postemergence; type: in vivo, Amaranthus palmeri; conditions: 10 days
Summary of the method: as §2

[18] = tested on: oat, wild; assay: Test C preemergence; type: in vivo, Avena fatua; conditions: 0 to 100 scale (0 no effect, 100 complete control); for Oat, Wild plant response rating: Test C, preemergence, 125 g ai/ha; for Plant response rating, Oat, Wild: Preemergence, 500 g ai/ha, visual rating after 10 days
Summary of the method: as §2

[19] = tested on: kochia; assay: Test C preemergence; type: in vivo, Bassia scoparia; conditions: 0 to 100 scale (0 no effect, 100 complete control); for Kochia plant response rating: Test C, preemergence, 125 g ai/ha; for Plant response rating, Kochia: Preemergence, 500 g ai/ha, visual rating after 10 days
Summary of the method: as §2

[20] = tested on: oat, wild; assay: Test C postemergence; type: in vivo, Avena fatua; conditions: 10 days
Summary of the method: as §2

[21] = tested on: barnyardgrass; assay: Test C preemergence; type: in vivo, Echinochloa crusgalli; conditions: 0 to 100 scale (0 no effect, 100 complete control); for Barnyardgrass plant response rating: Test C, preemergence, 125 g ai/ha; for Plant response rating, Barnyardgrass: Preemergence, 500 g ai/ha, visual rating after 10 days
Summary of the method: as §2

[22] = tested on: wheat; assay: Test C preemergence; type: in vivo, Triticum aestivum; conditions: 0 to 100 scale (0 no effect, 100 complete control); for Wheat plant response rating: Test C, preemergence, 125 g ai/ha; for Plant response rating, Wheat: Preemergence, 500 g ai/ha, visual rating after 10 days
Summary of the method: as §2

[23] = tested on: kochia; assay: Test C postemergence; type: in vivo, Bassia scoparia; conditions: 10 days
Summary of the method: as §2

[24] = tested on: green foxtail; assay: Test C preemergence; type: in vivo, Setaria viridis; conditions: 0 to 100 scale (0 no effect, 100 complete control); for Foxtail, Green plant response rating: Test C, preemergence, 125 g ai/ha; for Plant response rating, Foxtail, Green: Preemergence, 500 g ai/ha, visual rating after 10 days
Summary of the method: as §2

[25] = tested on: galium; assay: Test C postemergence; type: in vivo, Galium aparine; conditions: 10 days
Summary of the method: as §2

[26] = tested on: soybean; assay: Test C preemergence; type: in vivo, Glycine max; conditions: 0 to 100 scale (0 no effect, 100 complete control); for Soybean plant response rating: Test C, preemergence, 125 g ai/ha; for Plant response rating, Soybean: Preemergence, 500 g ai/ha, visual rating after 10 days
Summary of the method: as §2

[27] = tested on: rice; assay: Test D flooded paddy test; type: in vivo, Oryza sativa; conditions: 250 g ai/ha, applied to paddy water, visual rating after 13 to 14 days, scale 0 to 100 (0 no effect, 100 complete control)
Protocol: as §1

[28] = 125 g ai/ha, postemergence, 0 to 100 scale, 0 no effect, 100 complete control
[29] = Postemergence, 500 g ai/ha, visual 0 to 100 scale (0 no effect, 100 complete control)

COC[C@H]1CN(C(=O)c2cc(-n3cnc(C(C)(C)C)n3)ccc2OC)c2cccc(Cl)c2O1 [Compound 230]
Plant response rating, Barnyardgrass (Flood) [1]: 15 | Plant response rating, Ryegrass, Italian [2, 28]: 60 | Blackgrass plant response rating [3]: 70 | Corn plant response rating [4]: 20 | Plant response rating, Barnyardgrass [5, 28]: 60 | Plant response rating, Wheat [6, 28]: 40 | Plant response rating, Horseweed [7, 28]: 40 | Pigweed, Palmer plant response rating [8]: 100 | Plant response rating, Corn [9, 28]: 60 | Plant response rating, Ducksalad (Flood) [10]: 70 | Plant response rating, Soybean [11, 28]: 100 | Ryegrass, Italian plant response rating [12]: 80 | Plant response rating, Ragweed [13, 28]: 90 | Ragweed plant response rating [14]: 60 | Plant response rating, Sedge, Umbrella (Flood) [15]: 98 | Plant response rating, Blackgrass [16, 28]: 40 | Plant response rating, Pigweed, Palmer [17, 28]: 100 | Oat, Wild plant response rating [18]: 50 | Kochia plant response rating [19]: 0 | Plant response rating, Oat, Wild [20, 28]: 20 | Barnyardgrass plant response rating [21]: 60 | Wheat plant response rating [22]: 30 | Plant response rating, Kochia [23, 28]: 90 | Foxtail, Green plant response rating [24]: 100 | Plant response rating, Galium [25, 28]: 100 | Soybean plant response rating [26]: 90

CCc1ncn(-c2ccc(OC)c(C(=O)N3C[C@H](COC)Oc4c(Cl)cccc43)c2)n1 [Compound 231]
Plant response rating, Barnyardgrass (Flood) [1]: 15 | Plant response rating, Ryegrass, Italian [2, 28]: 90 | Plant response rating, Ryegrass, Italian [2, 29]: 100 | Plant response rating, Blackgrass [3]: 90 | Blackgrass plant response rating [3]: 60 | Plant response rating, Corn [4]: 30 | Corn plant response rating [4]: 10 | Plant response rating, Barnyardgrass [5, 28]: 80 | Plant response rating, Barnyardgrass [5, 29]: 90 | Plant response rating, Wheat [6, 28]: 50 | Plant response rating, Wheat [6, 29]: 90 | Plant response rating, Horseweed [7, 28]: 60 | Plant response rating, Horseweed [7, 29]: 90 | Plant response rating, Pigweed, Palmer [8]: 100 | Pigweed, Palmer plant response rating [8]: 100 | Plant response rating, Corn [9, 28]: 70 | Plant response rating, Corn [9, 29]: 90 | Plant response rating, Ducksalad (Flood) [10]: 85 | Plant response rating, Soybean [11, 28]: 100 | Plant response rating, Soybean [11, 29]: 100 | Plant response rating, Ryegrass, Italian [12]: 90 | Ryegrass, Italian plant response rating [12]: 70 | Plant response rating, Ragweed [13, 28]: 70 | Plant response rating, Ragweed [13, 29]: 70 | Plant response rating, Ragweed [14]: 90 | Ragweed plant response rating [14]: 50 | Plant response rating, Sedge, Umbrella (Flood) [15]: 100 | Plant response rating, Blackgrass [16, 28]: 80 | Plant response rating, Blackgrass [16, 29]: 90 | Plant response rating, Pigweed, Palmer [17, 28]: 90 | Plant response rating, Pigweed, Palmer [17, 29]: 90 | Plant response rating, Oat, Wild [18]: 80 | Oat, Wild plant response rating [18]: 40 | Plant response rating, Kochia [19]: 100 | Kochia plant response rating [19]: 90 | Plant response rating, Oat, Wild [20, 28]: 50 | Plant response rating, Oat, Wild [20, 29]: 90 | Plant response rating, Barnyardgrass [21]: 100 | Barnyardgrass plant response rating [21]: 60 | Plant response rating, Wheat [22]: 80 | Wheat plant response rating [22]: 40 | Plant response rating, Kochia [23, 28]: 80 | Plant response rating, Kochia [23, 29]: 90 | Plant response rating, Rice (Flood) [27]: 0 | Plant response rating, Foxtail, Green [24]: 100 | Foxtail, Green plant response rating [24]: 100 | Plant response rating, Galium [25, 28]: 100 | Plant response rating, Galium [25, 29]: 100 | Plant response rating, Soybean [26]: 70 | Soybean plant response rating [26]: 60

COC[C@H]1CN(C(=O)c2cc(-n3cncn3)ccc2OC)c2cccc(Cl)c2O1 [Compound 234]
Plant response rating, Barnyardgrass (Flood) [1]: 75 | Plant response rating, Ryegrass, Italian [2, 28]: 90 | Plant response rating, Ryegrass, Italian [2, 29]: 90 | Plant response rating, Blackgrass [3]: 80 | Blackgrass plant response rating [3]: 70 | Plant response rating, Corn [4]: 10 | Corn plant response rating [4]: 10 | Plant response rating, Barnyardgrass [5, 28]: 60 | Plant response rating, Barnyardgrass [5, 29]: 100 | Plant response rating, Wheat [6, 28]: 50 | Plant response rating, Wheat [6, 29]: 80 | Plant response rating, Horseweed [7, 28]: 20 | Plant response rating, Horseweed [7, 29]: 20 | Plant response rating, Pigweed, Palmer [8]: 90 | Pigweed, Palmer plant response rating [8]: 60 | Plant response rating, Corn [9, 28]: 70 | Plant response rating, Corn [9, 29]: 90 | Plant response rating, Ducksalad (Flood) [10]: 100 | Plant response rating, Soybean [11, 28]: 100 | Plant response rating, Soybean [11, 29]: 100 | Plant response rating, Ryegrass, Italian [12]: 90 | Ryegrass, Italian plant response rating [12]: 80 | Plant response rating, Ragweed [13, 28]: 50 | Plant response rating, Ragweed [13, 29]: 70 | Plant response rating, Ragweed [14]: 50 | Ragweed plant response rating [14]: 50 | Plant response rating, Sedge, Umbrella (Flood) [15]: 100 | Plant response rating, Blackgrass [16, 28]: 80 | Plant response rating, Blackgrass [16, 29]: 90 | Plant response rating, Pigweed, Palmer [17, 28]: 30 | Plant response rating, Pigweed, Palmer [17, 29]: 70 | Plant response rating, Oat, Wild [18]: 70 | Oat, Wild plant response rating [18]: 50 | Plant response rating, Kochia [19]: 60 | Kochia plant response rating [19]: 30 | Plant response rating, Oat, Wild [20, 28]: 50 | Plant response rating, Oat, Wild [20, 29]: 80 | Plant response rating, Barnyardgrass [21]: 100 | Barnyardgrass plant response rating [21]: 90 | Plant response rating, Wheat [22]: 80 | Wheat plant response rating [22]: 40 | Plant response rating, Kochia [23, 28]: 60 | Plant response rating, Kochia [23, 29]: 80 | Plant response rating, Rice (Flood) [27]: 0 | Plant response rating, Foxtail, Green [24]: 100 | Foxtail, Green plant response rating [24]: 100 | Plant response rating, Galium [25, 28]: 100 | Plant response rating, Galium [25, 29]: 100 | Plant response rating, Soybean [26]: 100 | Soybean plant response rating [26]: 90

COC(=O)N(C)c1ncn(-c2cccc(C(=O)N3C[C@H](C)Oc4c(C)cccc43)c2)n1 [Compound 300]
Plant response rating, Barnyardgrass (Flood) [1]: 0 | Plant response rating, Ducksalad (Flood) [10]: 0 | Plant response rating, Sedge, Umbrella (Flood) [15]: 0 | Plant response rating, Rice (Flood) [27]: 0
